# Measured values as given in ChEMBL document CHEMBL1649337, “Triterpenoidal alkaloids from Buxus natalensis and their acetylcholinesterase inhibitory activity” (J Nat Prod, 2010).
# pIC50: −log10 of the molar value.
# Molecular target: Acetylcholinesterase (Homo sapiens, UniProt P22303)
# Assay: Inhibition of AChE by Ellman's method
# Details: for pIC50: read-out: IC50; call rule not given here
# Sequence of Acetylcholinesterase (P22303 whole entry): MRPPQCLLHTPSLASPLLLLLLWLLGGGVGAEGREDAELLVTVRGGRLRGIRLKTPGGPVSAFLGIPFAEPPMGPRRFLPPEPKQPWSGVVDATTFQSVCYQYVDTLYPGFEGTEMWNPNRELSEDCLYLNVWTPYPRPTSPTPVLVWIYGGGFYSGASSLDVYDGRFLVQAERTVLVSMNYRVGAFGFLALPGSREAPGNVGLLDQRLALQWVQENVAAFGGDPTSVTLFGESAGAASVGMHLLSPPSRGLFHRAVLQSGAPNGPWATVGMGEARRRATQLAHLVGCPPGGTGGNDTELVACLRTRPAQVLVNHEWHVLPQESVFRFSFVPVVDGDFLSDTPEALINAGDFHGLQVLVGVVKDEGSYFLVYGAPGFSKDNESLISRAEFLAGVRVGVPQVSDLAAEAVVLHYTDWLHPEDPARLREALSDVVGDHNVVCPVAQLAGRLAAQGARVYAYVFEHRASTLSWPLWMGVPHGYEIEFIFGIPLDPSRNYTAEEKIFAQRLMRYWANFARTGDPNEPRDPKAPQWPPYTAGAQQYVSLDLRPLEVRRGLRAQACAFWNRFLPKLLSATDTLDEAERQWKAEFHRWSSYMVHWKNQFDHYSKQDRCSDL
smiles,measurement,value
CC(=O)O[C@@H]1C[C@@]2(C)[C@@H]3CC[C@H]4[C@](C)(CO)[C@@H](NC(=O)c5ccccc5)C=C[C@]4(O)CC3=CC[C@]2(C)[C@H]1[C@H](C)N(C)C [BUXALONGIFOLAMIDINE],pIC50,4.52
C[C@@H]([C@H]1[C@H](O)C[C@@]2(C)[C@@H]3C=C[C@H]4C(C)(C)[C@@H](N(C)C)[C@H](O)C[C@@]45C[C@@]35CC[C@]12C)N(C)C [CYCLONATAMINOL],pIC50,4.64
NCCCCNC(=O)/C=C/c1ccc(O)cc1 [P-COUMAROYLPUTRESCINE],IC50,Not Active
CC(=O)O[C@H]1C[C@@H]2C(=CC[C@]3(C)[C@@H]([C@H](C)N(C)C)[C@H](O)C[C@@]23C)C[C@@]23O[C@@H]2[C@H]2OC[C@](C)([C@H]2NC(=O)c2ccccc2)[C@H]13,pIC50,5.52
CC(=O)O[C@@H]1C[C@@]2(C)[C@@H]3C[C@H]4OC[C@@]5(C)[C@@H](NC(=O)c6ccccc6)C=C[C@@](O)(CC3=CC[C@]2(C)[C@H]1[C@H](C)N(C)C)[C@@H]45 [BUXAFURANAMIDE],pIC50,4.85
C[C@@H]([C@H]1CC[C@@]2(C)[C@@H]3CC[C@@H]4C(=CC3=CC[C@]12C)CC[C@H](N(C)C)C4(C)C)N(C)C [BUXAMINE A],pIC50,4.10
C[C@@H]([C@H]1[C@H](O)C[C@@]2(C)[C@@H]3CC[C@@H]4C(=CC3=CC[C@]12C)CC[C@H](N(C)C)C4(C)C)N(C)C [BUXAMINOL A],pIC50,4.53
C/C=C1/C(=O)C[C@@]2(C)[C@@H]3CC[C@H]4C(C)(C)[C@@H](N(C)C)CC[C@@]45C[C@@]35CC[C@]12C [CYCLOBUXOPHYLLINE K],pIC50,4.24
C[C@@H]([C@H]1[C@H](O)C[C@@]2(C)[C@@H]3C[C@H](O)[C@H]4[C@]5(C)CO[C@]4(C=C[C@@H]5NC(=O)c4ccccc4)CC3=CC[C@]12C)N(C)C,pIC50,5.07
CN[C@H]1CCC2=CC3=CC[C@]4(C)[C@@H]([C@H](C)N(C)C)[C@H](O)C[C@@]4(C)[C@@H]3CC[C@H]2C1(C)C [BUXAMINOL C],pIC50,4.40
C[C@@H]1[C@@H]2CC[C@@H]3C(=CC[C@]4(C)[C@@H]([C@H](C)N(C)C)[C@H](O)C[C@@]34C)C=C2CC[C@@H]1N(C)C [31-DEMETHYLBUXAMINOL],pIC50,4.59
